# Reference: patent US20040076659A1, “Additive for livestock feeds” (priority 1994, published 2004)
# Legend:
# wethers = assay: In vivo digestibility trial, timothy hay sprayed with Tween 80; settings: sheep; about 0.3% Tween 80 in the ration
# Procedure: Four […] weighing (72.5±15.0 kg) fitted with both rumen and duodenal cannula, were offered chopped medium quality timothy hay ad libitum. The hay was either sprayed with 500 ml water or 50 ml of […] dissolved in 500 ml of water. The feed was offered in two equal portions, at 08:30 and 20:30 hr. Water was available ad libitum. The experiment was designed as a 2×2 latin square with two 14-day adaptation, two 7-day collection periods. Estimates of the rates of passage of the two treated hays were made using chromium mordanted fibre (Cr) for the particulate phase and cobalt-ethylene diaminetetracetic acid (Co-EDTA) for the liquid phase. The method of Uden et al., “Investigation of chromium, cerium and cobalt as markers in digesta: Rate of Passage studies,” J. Sci. of Food and Agriculture 31:625-632 (1980), was used in the preparation of both markers. The sheep were adapted to the feed in individual pens, and then moved into digestibility cages for total collection and marker infusion. During the collection period, records of feed intake, faecal and urine output were maintained. 250 g subsamples of the faeces were collected daily, subsampled for DM determination, while the rest was dried under a drought oven. Urine was collected under 1N sulphuric acid. On the last day of the collection period, each sheep was given 50 g of Cr-mordanted fibre 1 hr prior to the evening feeding. In addition, 250 ml of Co-EDTA (0.1 g/ml) was infused intraruminally and the animals were then fed. Rumen digesta and duodenal sampling commenced 4 hr after dosing and continued at the same interval for 96 hr. Two samples of rumen fluid were collected: The first rumen fluid samples (30 ml) were preserved for microbial protein estimations by adding 7.5 ml of 0.9% NaCl in 37% formaldehyde solution. The samples were then stored at -20° C. after the preparation of a bacterial pellet by centrifugation at 27,000 g max for 15 min. A portion of the second rumen fluid and faecal samples was dried at 80° C. and ground in a coffee grinder (Braun, Inc. MA) for DM and Cr determination (Uden et al., 1980). Cr concentration in the samples was determined in duplicate by atomic absorption spectrophotometer (Perkin Elmer 560) using Cr standards (Fisher Scientific Co. NJ). The rest of the second rumen fluid sample was centrifuged at 10,000 g max for 10 min and the supernatants analyzed directly for cobalt using 0.1N HCL as the blank. Standards were prepared using cobalt chloride (Fisher Scientific Co. NJ). Marker concentrations were expressed per gram of dry sample. Other analyses included: acid and neutral detergent fibre (Goering and Van Soest, “Forage fiber analysis,” Agric. Handbook No. 379, p. 12 (1970)), total N (Parkinson and Allen, “A wet oxidation procedure suitable for the determination of nitrogen and mineral nutrients in biological materials,” Comm. Soil Sci. Plant Anal. 6:1 (1975)) for RNA concentrations of the rumen bacterial pellets and duodenal samples.
# [1] = Griffin et al., 1972; cited from earlier work
# [2] = system: rumen microbial proteinases; assay: Protease activity of mixed rumen microbial cell enzyme source (casein substrate); format: biochemical, cows
# Procedure: Two rumen-fistulated, nonlactating cows averaging 623±12.5 kg in weight were fed 5 kg dry matter (DM) of low quality timothy hay twice daily. About 2.5L of rumen fluid was collected through the fistula 4 hrs after the morning feeding at 07:00 hrs. Bulk feed particles were removed by sieving the fluid through a 0.5 mm strain. The fluid was then composited and then stored in a prewarmed (37° C.) thermal container.
# A microbial powder was prepared using the acetone-butanol extraction procedure outlined by Mahadevan et al., “Preparation of protease from mixed rumen microorganisms and its use for the in vitro determination of true protein in feedstuffs,” Can. J. Anim. Sci. 67:55 (1987). About 500 g of this powder was prepared and stored at −20° C. Extraction of the proteases was accomplished by stirring 250 g of the powder with 1L of 4° C. cold water (for 1 hr) and then proceeding along Mahadevan's extraction procedure. Only extracts from the filtration with an XM-300 Amicon Filter, (approx. 300 000 molecular weight cutoff—under nitrogen gas), were made, washed twice with distilled water and the retentate freeze dried. This was referred to as the mixed microbial cell enzyme source. It was used in the protein adhesion tests and also in the parallel thiol and protease activity determinations.
# Ten grams of the mixed microbial cell enzyme was dissolved in 100 ml warm (37° C.) 0.1 M phosphate buffer, pH 6.8, and used as an enzyme inoculant. The assay matrix consisted of 1 ml enzyme source, 1 ml 2% casein solution, 1 ml 01 M phosphate buffer and 1 ml of either the relevant level of surfactant or an equivalent amount of buffer. Ten levels of the two surfactants, polyoxyethylene sorbitan monoleate (Tween 80) and polyoxyethylene sorbitan monastearate (Tween 60) were tested, viz 0, 0.08, 0.16, 0.24, 0.32, 0.4, 0.8, 1.2, 1.6, and, 2.0% surfactant in the assay mixture.
# The protease activity incubations were performed in 50 ml plastic centrifuge tubes, at 37° C. and under a stream of carbon dioxide gas. After 1.5 hr, 1 ml of the assay mixture was removed for the determination of thiols (SH) and disulfides (SS) (Sasago et al., “Determination of sulfhydryl and disulfide groups in milk by p-chloromercuribenzoate-diathizone method,” J. Dairy Sci. 46:1348-1351 (1963)). At the end of 2 hr incubation, the reaction was stopped with 1 ml of 15% TCA (trichloroacetic acid) solution, cooled to 4° C. under an icebath, and centrifuged at 10,000 for 10 min. The free amino acids in the supernatant were assayed using the ninhydrin method (Rosen, “a Modified Colorimetric Analysis For Amino Acids,” Arch. Biochim. Biophys. 67:10 (1957)). The optimal surfactant inclusion level was calculated by direct linear plots on the assumption that the Michaellis-Menten equation applied.
# [3] = direct linear plots, Michaelis-Menten assumed
substance,measurement,setting,value
polyoxyethylene sorbitan monoleate [Tween 80],"Digestibility, Acid detergent fibre",wethers,52.68b (0.4) %
same,"Digestibility, Crude protein",wethers,61.25b (0.5) %
same,"Digestibility, Dry matter",wethers,64.70b (0.8) %
same,"Digestibility, Neutral detergent fibre",wethers,60.63b (0.7) %
same,Increase in digestibility compared to control,wethers,18%
same,Increase in intake compared to control,wethers,5%
same,Intake,wethers,2.06b (0.1) % of the body weight
same,HLB (hydrophile-lipophile balance),[1],15
same,Initial rate of proteinase activation,[2]; control=0,163.5%
same,"Km (additive conc.), proteinase activation",[2]; [3],0.20 ± 0.03b %
same,Vmax (maximum proteinase activation),[2]; [3],166.8 ± 8.9b %/unit additive conc.
